Columns and labels:
Format in all cases: in vivo
[1] = system: velvetleaf (Abutilon theophrasti); experiment: Test C; parameters: key: 0 was no effect; 100 was complete control; conditions: PREEMERGENCE
[2] = system: cotton (Gossypium hirsutum); experiment: Test C; parameters: key: 0 was no effect; 100 was complete control; conditions: PREEMERGENCE
[3] = system: giant foxtail (Setaria faberii); experiment: Test C; parameters: key: 0 was no effect; 100 was complete control; conditions: PREEMERGENCE
[4] = system: barnyardgrass (Echinochloa crus-galli); experiment: Test C; parameters: key: 0 was no effect; 100 was complete control; conditions: PREEMERGENCE
corn (Zea mays) = experiment: Test C; parameters: key: 0 was no effect; 100 was complete control; conditions: PREEMERGENCE
[5] = system: large crabgrass (Digitaria sanguinalis); experiment: Test C; parameters: key: 0 was no effect; 100 was complete control; conditions: PREEMERGENCE
[6] = system: surinam grass (Brachiaria decumbens); experiment: Test C; parameters: key: 0 was no effect; 100 was complete control; conditions: PREEMERGENCE
[7] = system: lambsquarters (Chenopodium album); experiment: Test C; parameters: key: 0 was no effect; 100 was complete control; conditions: PREEMERGENCE
[8] = system: common ragweed (Ambrosia elatior); experiment: Test C; parameters: key: 0 was no effect; 100 was complete control; conditions: PREEMERGENCE
[9] = system: field bindweed (Convolvulus arvensis); experiment: Test C; parameters: key: 0 was no effect; 100 was complete control; conditions: PREEMERGENCE
[10] = system: fall panicum (Panicum dichotomiflorum); experiment: Test C; parameters: key: 0 was no effect; 100 was complete control; conditions: PREEMERGENCE
[11] = system: itchgrass (Rottboellia exaltata); experiment: Test E pre-/postemergence/post directed
Outline: (§1)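 Greenhouse pots; compound in non-phytotoxic solvent with surfactant, sprayed preemergence within one day of planting, postemergence at two to four leaf stage (three to twenty cm), or post directed to plant base and soil. Visual injury rated 13 to 21 days after application, 0 (none) to 100 (complete control).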

[12] = system: surinam grass (Brachiaria decumbens); experiment: Test E pre-/postemergence/post directed
Outline: as §1

[13] = system: pitted morningglory (Ipomoea lacunosa); experiment: Test E pre-/postemergence/post directed
Outline: as §1

[14] = system: common groundsel (Senecio vulgaris); experiment: Test E pre-/postemergence/post directed
Outline: as §1

Cc1cnc(-c2ccc(C(F)(F)F)cc2)nc1Cc1cccc(OC(F)(F)F)c1 [Compound 15]
Plant response rating, Velvetleaf ([1]; Rate 35 g/ha): 5 | Plant response rating, Velvetleaf ([1]; Rate 70 g/ha): 20 | Plant response rating, Velvetleaf ([1]; Rate 140 g/ha): 70 | Plant response rating, Cotton ([2]; Rate 35 g/ha): 5 | Plant response rating, Cotton ([2]; Rate 70 g/ha): 10 | Plant response rating, Cotton ([2]; Rate 140 g/ha): 10 | Plant response rating, Giant foxtail ([3]; Rate 35 g/ha): 70 | Plant response rating, Giant foxtail ([3]; Rate 70 g/ha): 100 | Plant response rating, Giant foxtail ([3]; Rate 140 g/ha): 100 | Plant response rating, Barnyardgrass ([4]; Rate 35 g/ha): 10 | Plant response rating, Barnyardgrass ([4]; Rate 70 g/ha): 35 | Plant response rating, Barnyardgrass ([4]; Rate 140 g/ha): 85 | Plant response rating, Corn (corn (Zea mays); Rate 35 g/ha): 0 | Plant response rating, Corn (corn (Zea mays); Rate 70 g/ha): 5 | Plant response rating, Corn (corn (Zea mays); Rate 140 g/ha): 10 | Plant response rating, Large crabgrass ([5]; Rate 35 g/ha): 100 | Plant response rating, Large crabgrass ([5]; Rate 70 g/ha): 100 | Plant response rating, Large crabgrass ([5]; Rate 140 g/ha): 100 | Plant response rating, Surinam grass ([6]; Rate 35 g/ha): 20 | Plant response rating, Surinam grass ([6]; Rate 70 g/ha): 50 | Plant response rating, Surinam grass ([6]; Rate 140 g/ha): 80 | Plant response rating, Lambsquarters ([7]; Rate 35 g/ha): 0 | Plant response rating, Lambsquarters ([7]; Rate 70 g/ha): 20 | Plant response rating, Lambsquarters ([7]; Rate 140 g/ha): 60 | Plant response rating, Common ragweed ([8]; Rate 35 g/ha): 10 | Plant response rating, Common ragweed ([8]; Rate 70 g/ha): 20 | Plant response rating, Common ragweed ([8]; Rate 140 g/ha): 75 | Plant response rating, Field bindweed ([9]; Rate 35 g/ha): 65 | Plant response rating, Field bindweed ([9]; Rate 70 g/ha): 100 | Plant response rating, Field bindweed ([9]; Rate 140 g/ha): 100 | Plant response rating, Fall panicum ([10]; Rate 35 g/ha): 40 | Plant response rating, Fall panicum ([10]; Rate 70 g/ha): 80 | Plant response rating, Fall panicum ([10]; Rate 140 g/ha): 100 | Plant response rating, Itchgrass ([11]; POSTEMERGENCE, Rate 125 g/ha): 80 | Plant response rating, Itchgrass ([11]; POSTEMERGENCE, Rate 250 g/ha): 85 | Plant response rating, Itchgrass ([11]; PREEMERGENCE, Rate 32 g/ha): 10 | Plant response rating, Itchgrass ([11]; PREEMERGENCE, Rate 64 g/ha): 30 | Plant response rating, Itchgrass ([11]; PREEMERGENCE, Rate 125 g/ha): 60 | Plant response rating, Itchgrass ([11]; PREEMERGENCE, Rate 250 g/ha): 80 | Plant response rating, Surinam grass ([12]; POSTEMERGENCE, Rate 125 g/ha): 35 | Plant response rating, Surinam grass ([12]; POSTEMERGENCE, Rate 250 g/ha): 40 | Plant response rating, Surinam grass ([12]; PREEMERGENCE, Rate 32 g/ha): 20 | Plant response rating, Surinam grass ([12]; PREEMERGENCE, Rate 64 g/ha): 20 | Plant response rating, P. morninglory ([13]; POSTEMERGENCE, Rate 125 g/ha): 5 | Plant response rating, P. morninglory ([13]; POSTEMERGENCE, Rate 250 g/ha): 5 | Plant response rating, P. morninglory ([13]; PREEMERGENCE, Rate 32 g/ha): 5 | Plant response rating, P. morninglory ([13]; PREEMERGENCE, Rate 64 g/ha): 40 | Plant response rating, P. morninglory ([13]; PREEMERGENCE, Rate 125 g/ha): 75 | Plant response rating, P. morninglory ([13]; PREEMERGENCE, Rate 250 g/ha): 90 | Plant response rating, Com. groundsel ([14]; POSTEMERGENCE, Rate 250 g/ha): 20 | Plant response rating, Com. groundsel ([14]; PREEMERGENCE, Rate 64 g/ha): 98

Cc1cnc(-n2ccc(C(F)(F)F)n2)nc1Cc1cccc(C(F)(F)F)c1 [Example 2, 5-methyl-4-[[3-(trifluoromethyl)phenyl]methyl]-2-[3-(trifluoromethyl)-1H-pyrazol-1-yl]pyrimidine]
Plant response rating, Velvetleaf ([1]; Rate 35 g/ha): 0 | Plant response rating, Velvetleaf ([1]; Rate 70 g/ha): 5 | Plant response rating, Velvetleaf ([1]; Rate 140 g/ha): 50 | Plant response rating, Cotton ([2]; Rate 35 g/ha): 0 | Plant response rating, Cotton ([2]; Rate 70 g/ha): 5 | Plant response rating, Cotton ([2]; Rate 140 g/ha): 15 | Plant response rating, Giant foxtail ([3]; Rate 35 g/ha): 0 | Plant response rating, Giant foxtail ([3]; Rate 70 g/ha): 5 | Plant response rating, Giant foxtail ([3]; Rate 140 g/ha): 100 | Plant response rating, Barnyardgrass ([4]; Rate 35 g/ha): 0 | Plant response rating, Barnyardgrass ([4]; Rate 70 g/ha): 5 | Plant response rating, Barnyardgrass ([4]; Rate 140 g/ha): 30 | Plant response rating, Corn (corn (Zea mays); Rate 35 g/ha): 0 | Plant response rating, Corn (corn (Zea mays); Rate 70 g/ha): 0 | Plant response rating, Corn (corn (Zea mays); Rate 140 g/ha): 30 | Plant response rating, Large crabgrass ([5]; Rate 35 g/ha): 0 | Plant response rating, Large crabgrass ([5]; Rate 70 g/ha): 5 | Plant response rating, Large crabgrass ([5]; Rate 140 g/ha): 100 | Plant response rating, Surinam grass ([6]; Rate 35 g/ha): 0 | Plant response rating, Surinam grass ([6]; Rate 70 g/ha): 10 | Plant response rating, Surinam grass ([6]; Rate 140 g/ha): 35 | Plant response rating, Lambsquarters ([7]; Rate 35 g/ha): 0 | Plant response rating, Lambsquarters ([7]; Rate 140 g/ha): 100 | Plant response rating, Common ragweed ([8]; Rate 35 g/ha): 0 | Plant response rating, Common ragweed ([8]; Rate 70 g/ha): 0 | Plant response rating, Common ragweed ([8]; Rate 140 g/ha): 50 | Plant response rating, Field bindweed ([9]; Rate 35 g/ha): 0 | Plant response rating, Field bindweed ([9]; Rate 70 g/ha): 30 | Plant response rating, Field bindweed ([9]; Rate 140 g/ha): 100 | Plant response rating, Fall panicum ([10]; Rate 35 g/ha): 0 | Plant response rating, Fall panicum ([10]; Rate 70 g/ha): 5 | Plant response rating, Fall panicum ([10]; Rate 140 g/ha): 100 | Plant response rating, Itchgrass ([11]; POSTEMERGENCE, Rate 32 g/ha): 40 | Plant response rating, Itchgrass ([11]; POSTEMERGENCE, Rate 64 g/ha): 40 | Plant response rating, Itchgrass ([11]; POSTEMERGENCE, Rate 125 g/ha): 75 | Plant response rating, Itchgrass ([11]; POSTEMERGENCE, Rate 250 g/ha): 90 | Plant response rating, Itchgrass ([11]; POSTEMERGENCE, Rate 500 g/ha): 95 | Plant response rating, Itchgrass ([11]; PREEMERGENCE, Rate 32 g/ha): 70 | Plant response rating, Itchgrass ([11]; PREEMERGENCE, Rate 64 g/ha): 75 | Plant response rating, Itchgrass ([11]; PREEMERGENCE, Rate 125 g/ha): 75 | Plant response rating, Itchgrass ([11]; PREEMERGENCE, Rate 250 g/ha): 95 | Plant response rating, Surinam grass ([12]; POSTEMERGENCE, Rate 32 g/ha): 35 | Plant response rating, Surinam grass ([12]; POSTEMERGENCE, Rate 64 g/ha): 50 | Plant response rating, Surinam grass ([12]; POSTEMERGENCE, Rate 125 g/ha): 50 | Plant response rating, Surinam grass ([12]; POSTEMERGENCE, Rate 250 g/ha): 70 | Plant response rating, Surinam grass ([12]; POSTEMERGENCE, Rate 500 g/ha): 80 | Plant response rating, Surinam grass ([12]; PREEMERGENCE, Rate 32 g/ha): 50 | Plant response rating, Surinam grass ([12]; PREEMERGENCE, Rate 64 g/ha): 90 | Plant response rating, P. morninglory ([13]; POSTEMERGENCE, Rate 32 g/ha): 80 | Plant response rating, P. morninglory ([13]; POSTEMERGENCE, Rate 64 g/ha): 80 | Plant response rating, P. morninglory ([13]; POSTEMERGENCE, Rate 125 g/ha): 80 | Plant response rating, P. morninglory ([13]; POSTEMERGENCE, Rate 250 g/ha): 90 | Plant response rating, P. morninglory ([13]; POSTEMERGENCE, Rate 500 g/ha): 90 | Plant response rating, Com. groundsel ([14]; POSTEMERGENCE, Rate 64 g/ha): 20 | Plant response rating, Com. groundsel ([14]; POSTEMERGENCE, Rate 125 g/ha): 20 | Plant response rating, Com. groundsel ([14]; POSTEMERGENCE, Rate 250 g/ha): 40 | Plant response rating, Com. groundsel ([14]; POSTEMERGENCE, Rate 500 g/ha): 75
